Assay results published in patent US6723716B1, “7-acylamino-3-heteroarylthio-3-cephem carboxylic acid antibiotics and prodrugs thereof” (Essential Therapeutics, Inc., priority 1999, dated 2004).
In brackets after ≈: the same amount, converted by molar mass. Read-outs that look alike come from different tables or passages of the source.

Key:
E. coli ATCC25992 = assay: Broth microdilution MIC (NCCLS); type: cell-based; settings: Escherichia coli
How it was run: (§1)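 Following NCCLS guidance, compounds were titrated 2-fold in Mueller-Hinton broth against 5×10^5 CFU/mL inocula. After 24 h at 35° C, growth was judged by absorbance at 650 nm and by eye. The MIC was taken as the lowest concentration that stopped growth.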

E. faecalis ATCC 29212 = assay: Broth microdilution MIC (NCCLS); type: cell-based; settings: Enterococcus faecalis, ATCC29212
How it was run: (§2)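 MIC = lowest drug concentration with no bacterial growth, read at 650 nm and visually after 24 h at 35° C. Assay run in MHB per NCCLS, inoculum 5×10^5 CFU/mL, compounds serially diluted 2-fold in plate.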

E. faecalis VanB (Van^R) = assay: Broth microdilution MIC (NCCLS); type: cell-based; settings: Enterococcus faecalis
How it was run: as §2

E. faecium ATCC 35667 = assay: Broth microdilution MIC (NCCLS); type: cell-based; settings: Enterococcus faecium, ATCC35667
How it was run: as §2

P. aeruginosa ATCC 27853 = assay: Broth microdilution MIC (NCCLS); type: cell-based; settings: Pseudomonas aeruginosa, ATCC27853
How it was run: as §1

[1] = tested on: S. aureus ATCC 13709 (Meth^S); assay: Broth microdilution MIC (NCCLS); type: cell-based; settings: Staphylococcus aureus, ATCC13709, S. aureus ATCC 13709 (Meth^S); read-out: MIC
How it was run: as §2

S. aureus ATCC 29213 = assay: Broth microdilution MIC (NCCLS); type: cell-based; settings: Staphylococcus aureus, ATCC29213; S. aureus ATCC 29213; Mueller-Hinton broth, 24 h at 35° C.; read-out: MIC
How it was run: as §2

[2] = tested on: S. aureus ATCC 33593 (Meth^R); assay: Broth microdilution MIC (NCCLS); type: cell-based; settings: Staphylococcus aureus, ATCC33593
How it was run: as §2

[3] = tested on: S. aureus PC1 (Meth^S)(lac^+); assay: Broth microdilution MIC (NCCLS); type: cell-based; settings: Staphylococcus aureus
How it was run: as §2

[4] = tested on: S. aureus Spain #356 (Meth^R); assay: Broth microdilution MIC (NCCLS); type: cell-based; settings: Staphylococcus aureus, 24 h
How it was run: as §2

[5] = Pharmacokinetic evaluation in rat (clearance); type: in vivo; settings: male, Sprague-Dawley (SD), serum, iv, read-out: Pharmacokinetics Clearance (converted)
Source text: Four male SD rats with femoral and jugular vein catheters were obtained from Hilltop Lab Animals, Inc. (Scottdale, Pa.). The catheters in the femoral and jugular veins were filled with 10 units/mL heparin in saline, and kept patent by changing the solution daily. The animals were quarantined for a minimum of two days prior to use, and were maintained on a 12-h light:dark schedule with constant access to food and water before and during the study. On the day of dosing, the animals weighed […] (mean±s.d.).
A 4 mg/mL (active component) dosing solution of mesylate salt of compound 17 was prepared in sterile saline for injection. […] Blood samples (0.2 mL aliquots) were collected from the jugular vein catheter 5, 15, 20, 25, 30, and 45 min, and 1, 2, 3, and 4 h after the start of the infusion. The blood was centrifuged for 10 min and the serum was stored ≦−70° C. until analysis by HPLC.
The plasma concentrations from individual animals were fit to a two-compartment model with zero order input and first-order elimination from the central compartment using weighted nonlinear regression (WinNonlin, Pharsight, Palo Alto, Calif.). Pharmacokinetic parameters were calculated from the fitted parameters using standard equations (Gibaldi M, Perrier D. 1982. Pharmacokinetics, 2nd ed., Marcel Dekker Inc., New York.).

[6] = tested on: S. aureus ATCC 13709 (Smith diffuse); assay: Murine lethal bacteremic peritonitis (septicemia) efficacy; type: in vivo, mice; settings: for responders at 0.312 mg/kg: dose 0.312 mg/kg s.c. at 0 and 2 h post-challenge; for responders at 0.625 mg/kg: dose 0.625 mg/kg s.c. at 0 and 2 h post-challenge; for responders at 1.25 mg/kg: dose 1.25 mg/kg s.c. at 0 and 2 h post-challenge; for responders at 2.5 mg/kg: dose 2.5 mg/kg s.c. at 0 and 2 h post-challenge; for ED50: ATCC13709, mice, S. aureus ATCC 13709 i.p., s.c. at 0 and 2 h post-challenge, probit method; for Efficacy in murine septicemia % survival: dose 5 mg/kg s.c. at 0 and 2 h post-challenge
Experimental: 10 mice/group were injected intraperitoneally with 2.98×10^7 cfu S. aureus ATCC 13709 (Smith diffuse) and treated at 0 and 2 hrs post-challenge with serial two-fold doses of new cephalosporin antibiotic, imipenem and vancomycin subcutaneously in order to determine the ED50. Male Swiss-Webster mice weighing originally 24.2-26.1 g were obtained from Charles Rivers Labs, Hollister, Calif. Mice were housed 10 per cage and given free access to water and mouse chow.
Staphylococcus aureus ATCC 13709 (Smith diffuse) was grown overnight at 37° C. in Brain-heart Infusion broth (BHIB). The following morning, it was subcultured to fresh BHIB and incubated for 4-5 h at 37° C. The log-phase growth cells were washed once with physiological saline and adjusted to the desired concentration by correlation of absorbency at OD 600 nm with predetermined plate counts (NCCLS, 1994). The cell suspension was mixed with an equal volume of sterile 14% hog-gastric mucin (2). Inoculum was kept in an ice bath until used (<1 h).
Mice were challenged via an injection of 0.5 mL bacterial suspension intraperitoneally. The bacterial challenge was 2.98×10^7 cfu/mouse.
Imipenem (Primaxin IV; Lot 7294A), vancomycin (Vancocin; Lot 8MU60W), and new cephalosporin antibiotic were prepared by serial two-fold dilutions to concentrations of 0.078-0.005 mg/mL, 1.2-0.075 mg/mL, 0.3-0.02 mg/mL, 0.3-0.02 mg/mL and 0.3-0.02 mg/mL respectively in sterile water (1). All antibiotics were administered subcutaneously in 0.1 mL volumes at 0 and 2 hours post-challenge. Concentrations of all compounds are based on the weight of the bioactive ingredients.
The 50% effective dose (ED50) was calculated by the probit method (3) utilizing a program entitled Probit (Nycomed-Salutar).

[7] = Staphylococcus aureus, ATCC13709, sc, read-out: Efficacy in murine septicemia % survival

Structure (SMILES)	MIC (E. faecalis VanB (Van^R))	MIC (E. faecium ATCC 35667)	MIC (P. aeruginosa ATCC 27853)	MIC [1]	MIC (S. aureus ATCC 29213)	MIC [3]	MIC [4]	responders at 0.312 mg/kg [6, 7]	responders at 0.625 mg/kg [6, 7]	responders at 1.25 mg/kg [6, 7]	responders at 2.5 mg/kg [6, 7]	ED50 ([6]; Staphylococcus aureus)	clearance ([5]; dose 20.0 mg/kg)	Efficacy in murine septicemia % survival [6]	other results
NCCSCc1nc(SCCN)sc1SC1=C(C(=O)O)N2C(=O)[C@@H](NC(=O)/C(=N\O)c3nc(N)sc3Cl)[C@H]2SC1 [Cmpd 11, (7R)-7-[(Z)-2-(2-amino-5-chlorothiazol-4-yl)-2-(hydroxyimino)acetamido]-3-[4-(2-aminoethylthiomethyl)-2-aminoethylthio-1,3-thiazol-5-ylthio]-3-cephem-4-carboxylic acid]	0.06 µg/mL (≈ 0.0878 µM)	0.5 µg/mL (≈ 0.732 µM)	2 µg/mL (≈ 2.93 µM)	0.13 µg/mL (≈ 0.19 µM)	0.06 µg/mL (≈ 0.0878 µM)	0.13 µg/mL (≈ 0.19 µM)	0.5 µg/mL (≈ 0.732 µM)	–	–	–	–	–	–	–	MIC (E. coli ATCC25992): 2 µg/mL (≈ 2.93 µM); MIC (E. faecalis ATCC 29212): 0.06 µg/mL (≈ 0.0878 µM); MIC [2]: 0.5 µg/mL (≈ 0.732 µM)
NCCSCc1nc(N)sc1SC1=C(C(=O)O)N2C(=O)[C@@H](NC(=O)/C(=N\O)c3nc(N)sc3Cl)[C@H]2SC1 [Cmpd 3, (7R)-7-[(Z)-2-(2-amino-5-chlorothiazol-4-yl)-2-(hydroxyimino)acetamido]-3-[4-(2-aminoethylthiomethyl)-2-amino-1,3-thiazol-5-ylthio]-3-cephem-4-carboxylic acid]	0.25 µg/mL (≈ 0.401 µM)	1 µg/mL (≈ 1.6 µM)	4 µg/mL (≈ 6.42 µM)	0.13 µg/mL (≈ 0.209 µM)	0.25 µg/mL (≈ 0.401 µM)	0.25 µg/mL (≈ 0.401 µM)	1 µg/mL (≈ 1.6 µM)	50%	90%	90%	100%	0.39 mg/kg	–	–	clearance ([5]; dose 27.5 mg/kg): 15.8 mL/min/kg; responders at 0.078 mg/kg ([6]; Staphylococcus aureus, ATCC13709, sc, dose 0.078 mg/kg s.c. at 0 and 2 h post-challenge, read-out: Efficacy in murine septicemia % survival): 30%; responders at 0.165 mg/kg ([6]; Staphylococcus aureus, ATCC13709, sc, dose 0.165 mg/kg s.c. at 0 and 2 h post-challenge, read-out: Efficacy in murine septicemia % survival): 40%
NCCSCc1ncccc1SC1=C(C(=O)O)N2C(=O)[C@@H](NC(=O)/C(=N\O)c3nc(N)sc3Cl)[C@H]2SC1 [Cmpd 13, (7R)-7-[(Z)-2-(2-amino-5-chlorothiazol-4-yl)-2-(hydroxyimino)acetamido]-3-[2-(2-aminoethylthiomethyl)pyrid-3-ylthio]-3-cephem-4-carboxylic acid]	–	–	–	–	0.25 µg/mL (≈ 0.415 µM)	0.25 µg/mL (≈ 0.415 µM)	–	–	100%	100%	100%	–	13.2 mL/min/kg	5/100%	–
NCCSCc1ccncc1SC1=C(C(=O)O)N2C(=O)[C@@H](NC(=O)/C(=N\O)c3nc(N)sc3Cl)[C@H]2SC1 [Cmpd 21, (7R)-7-[(Z)-2-(2-amino-5-chlorothiazol-4-yl)-2-(hydroxyimino)acetamido]-3-[4-(2-aminoethylthiomethyl)pyrid-3-ylthio]-3-cephem-4-carboxylic acid]	–	–	–	–	–	0.25 µg/mL (≈ 0.415 µM)	–	0%	0%	70%	80%	0.79 mg/kg	12.2 mL/min/kg	–	–
N=C(N)NCCSCc1ncccc1SC1=C(C(=O)O)N2C(=O)[C@@H](NC(=O)/C(=N\O)c3nsc(N)n3)[C@H]2SC1 [Cmpd 14, (7R)-7-[(Z)-2-(5-amino-1,2,4-thiadiazol-3-yl)-2-(hydroxyimino)acetamido]-3-[2-(2-guanidinoethylthiomethyl)pyrid-3-ylthio]-3-cephem-4-carboxylic acid]	0.25 µg/mL (≈ 0.409 µM)	–	–	–	–	–	–	90%	100%	100%	100%	< 0.31 mg/kg	–	5/100%	–
NCCSCc1ncccc1SC1=C(C(=O)O)N2C(=O)[C@@H](NC(=O)/C(=N\O)c3nsc(N)n3)[C@H]2SC1 [Cmpd 17, (7R)-7-[(Z)-2-(5-amino-1,2,4-thiadiazol-3-yl)-2-(hydroxyimino)acetamido]-3-[2-(2-aminoethylthiomethyl)pyrid-3-ylthio]-3-cephem-4-carboxylic acid]	–	–	–	0.25 µg/mL (≈ 0.44 µM)	0.25 µg/mL (≈ 0.44 µM)	0.25 µg/mL (≈ 0.44 µM)	–	–	–	–	–	0.39 mg/kg	–	–	clearance ([5]; dose 16.4 mg/kg, mesylate salt, 20 min i.v. infusion): 8.33 mL/min/kg; responders at 0.12 mg/kg ([6]; Staphylococcus aureus, ATCC13709, sc, dose 0.12 mg/kg s.c. at 0 and 2 h post-challenge, read-out: Efficacy in murine septicemia % survival): 10%; responders at 0.25 mg/kg ([6]; Staphylococcus aureus, ATCC13709, sc, dose 0.25 mg/kg s.c. at 0 and 2 h post-challenge, read-out: Efficacy in murine septicemia % survival): 20%; responders at 0.5 mg/kg ([6]; Staphylococcus aureus, ATCC13709, sc, dose 0.5 mg/kg s.c. at 0 and 2 h post-challenge, read-out: Efficacy in murine septicemia % survival): 50%; responders at 1 mg/kg ([6]; Staphylococcus aureus, ATCC13709, sc, dose 1.0 mg/kg s.c. at 0 and 2 h post-challenge, read-out: Efficacy in murine septicemia % survival): 100%; responders at 2 mg/kg ([6]; Staphylococcus aureus, ATCC13709, sc, dose 2.0 mg/kg s.c. at 0 and 2 h post-challenge, read-out: Efficacy in murine septicemia % survival): 100%
